Earlier results as cited in US20260199285A1, “TAXANE FORMULATIONS” (BIOPURIFICATION, LLC, priority 2022, published 2026).

Key:
[1] = system: tubulin depolymerization
[2] = system: advanced breast carcinoma

## CC(=O)O[C@@]12CO[C@@H]1C[C@H](O)[C@@]1(C)C(=O)[C@H](O)C3=C(C)[C@@H](OC(=O)[C@H](O)[C@@H](NC(=O)OC(C)(C)C)c4ccccc4)C[C@@](O)([C@@H](OC(=O)c4ccccc4)[C@H]21)C3(C)C [docetaxel]
[1]
  inhibitory activity of tubulin depolymerization relative to paclitaxel: about 2 times
[2]
  effective ratio for treatment of advanced breast carcinoma: 49%
